In patent US20090197856A1, “ANTIVIRAL COMPOUNDS” (Genelabs Technologies, Inc., priority 2007, published 2009) one finds IC50 data, which are given here for 24 compounds.

This assay addresses T1, NS5B (Hepatitis C virus genotype 1b, UniProt Q9WMX2).
T1 construct: 3 nM NS5B, 20 nM polyC RNA template
Briefly: Polymerase assay, incorporation of radiolabeled GTP with biotinylated oligoG13 primer and polycytidylic acid RNA template. Format: biochemical. The settings on record: polyC RNA template, biotin-oligoG13 primer, tritiated GTP, 3 nM NS5B, 30° C., 2 hours. The method, then: The polymerase activity was also assayed by measuring incorporation of radiolabeled GTP into an RNA product using a biotinylated oligoG13 primer with a polycytidylic acid RNA template. Typically, the assay mixture (40 μL) contains 50 mM HEPES (pH 7.3), 2.5 mM magnesium acetate, 2 mM sodium chloride, 37.5 mM potassium acetate, 5 mM DTT, 0.4 U/mL RNasin, 2.5% glycerol, 3 nM NS5B, 20 nM polyC RNA template, 20 nM biotin-oligoG13 primer, and 0.2 μM tritiated guanosine triphosphate. Test compounds were initially dissolved and diluted in 100% DMSO and further diluted into aqueous buffer, producing a final concentration of 5% DMSO. Typically, compounds were tested at concentrations between 0.2 nM and 10 μM. Reactions were started with addition of tritiated guanosine triphosphate and allowed to continue at 30° C. for 2 hours. Reactions were quenched with 100 μL stop buffer containing 10 mM EDTA and 1 μg/mL streptavidin-coated scintillation proximity beads. Reaction plates were incubated at 4° C. for 10 hours and then incorporation of radioactivity was determined by scintillation counting. The table below lists the IC50 values of compounds determined using this procedure.

T1 sequence (Q9WMX2 2420-3010): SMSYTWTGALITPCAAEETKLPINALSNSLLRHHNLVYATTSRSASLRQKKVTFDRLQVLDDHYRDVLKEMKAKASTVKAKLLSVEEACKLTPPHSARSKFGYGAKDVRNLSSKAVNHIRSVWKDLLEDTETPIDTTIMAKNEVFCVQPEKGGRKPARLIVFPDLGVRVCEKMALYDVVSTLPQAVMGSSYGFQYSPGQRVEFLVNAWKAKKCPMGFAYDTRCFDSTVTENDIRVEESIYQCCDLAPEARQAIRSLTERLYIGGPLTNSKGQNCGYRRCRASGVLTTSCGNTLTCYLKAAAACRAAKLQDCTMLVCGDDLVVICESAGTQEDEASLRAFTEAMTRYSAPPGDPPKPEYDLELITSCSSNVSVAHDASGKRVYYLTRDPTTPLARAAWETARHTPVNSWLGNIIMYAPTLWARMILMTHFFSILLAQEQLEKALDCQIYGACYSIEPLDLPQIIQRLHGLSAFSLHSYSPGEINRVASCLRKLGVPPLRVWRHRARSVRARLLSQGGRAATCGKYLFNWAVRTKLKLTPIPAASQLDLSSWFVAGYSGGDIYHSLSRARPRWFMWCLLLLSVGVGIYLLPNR

One may read the IC50 as the midpoint of a concentration-inhibition curve. A lower IC50 goes with greater potency. `CN(C)C(=O)c1c(CNC2CCOCC2)c2cccc3c2n1CCCn1c-3c(C2CCCCC2)c2ccc(C(=O)O)cc21` [Compound 308] registered an IC50 of 7 nM.

`CN(C)C(=O)c1c(CN2CCCC2)c2cccc3c2n1CCCn1c-3c(C2CCCCC2)c2ccc(C(=O)O)cc21` [Compound 309] returned an IC50 of 6 nM. This IC50 and that of the compound before are within 1.5-fold of each other.

In the case of `CN(C)C(=O)c1c(CNS(=O)(=O)C2CC2)c2cccc3c2n1CCCn1c-3c(C2CCCCC2)c2ccc(C(=O)O)cc21` [Compound 310], the midpoint of inhibition, the IC50, lay at 6 nM.

Turning to `CN(C)C(=O)c1c(CN2CCOCC2)c2cccc3c2n1CCCn1c-3c(C2CCCCC2)c2ccc(C(=O)O)cc21` [Compound 311], the IC50 is 5 nM.

In turn, `CCN(C)Cc1c(C(=O)N(C)C)n2c3c(cccc13)-c1c(C3CCCCC3)c3ccc(C(=O)O)cc3n1CC2` [Compound 312] yielded an IC50 of 4 nM.

`CC(C)N1CCCC[C@H]1C(=O)N(C)Cc1c(C(=O)N(C)C)n2c3c(cccc13)-c1c(C3CCCCC3)c3ccc(C(=O)O)cc3n1CCC2` [Compound 313] displayed an IC50 of 2 nM.

Take `CN(C)C(=O)c1c(CN(C)C(=O)C(C)(C)N2CCCC2)c2cccc3c2n1CCCn1c-3c(C2CCCCC2)c2ccc(C(=O)O)cc21` [Compound 314]: the IC50 turned out to be 11 nM.

The compound `CCN(C)Cc1c(C(=O)N(C)C)n2c3c(cccc13)-c1c(C3CCCCC3)c3ccc(C(=O)NS(=O)(=O)N(C)C)cc3n1CCC2` [Compound 315] displayed an IC50 of 2 nM.

Compound `CCN(C)Cc1c(C(=O)N(C)C)n2c3c(cccc13)-c1c(C3CCCCC3)c3ccc(C(=O)NS(=O)(=O)C4CC4)cc3n1CCC2` [Compound 316] came in with an IC50 of 5 nM.

On to `CCN(C)Cc1c(C(=O)N(CC)CC)n2c3c(cccc13)-c1c(C3CCCCC3)c3ccc(C(=O)O)cc3n1CCC2` [Compound 317], for which inhibition was half-maximal at 5 nM (IC50).

The compound `CCN(C)Cc1c(C(=O)N2CCN(S(C)(=O)=O)CC2)n2c3c(cccc13)-c1c(C3CCCCC3)c3ccc(C(=O)O)cc3n1CCC2` [Compound 318] registered an IC50 of 9 nM.

In the case of `CCN(C)Cc1c(C(=O)NC2CC2)n2c3c(cccc13)-c1c(C3CCCCC3)c3ccc(C(=O)O)cc3n1CCC2` [Compound 319], the concentration for half-maximal inhibition (IC50) turned out to be 11 nM.

Consider `CCN(C)Cc1c(C(=O)N2CCCC2)n2c3c(cccc13)-c1c(C3CCCCC3)c3ccc(C(=O)O)cc3n1CCC2` [Compound 320], for which the IC50 turned out to be 3 nM. Compared with the last compound, the IC50 is about 3.7-fold lower.

With `CCN(C)Cc1c(C(=O)NS(=O)(=O)N(C)C)n2c3c(cccc13)-c1c(C3CCCCC3)c3ccc(C(=O)O)cc3n1CCC2` [Compound 321], the IC50 is 8 nM.

Regarding `CCN(C)Cc1c(C(=O)NS(=O)(=O)C2CC2)n2c3c(cccc13)-c1c(C3CCCCC3)c3ccc(C(=O)O)cc3n1CCC2` [Compound 322], the IC50 came to 9 nM.

`CCN(C)Cc1c(C(=O)N(C)Cc2ccccc2)n2c3c(cccc13)-c1c(C3CCCCC3)c3ccc(C(=O)O)cc3n1CCC2` [Compound 323]: the IC50 stood at 9 nM. In other words, the single-digit nanomolar range.

Turning to `CCN(C)Cc1c(C(=O)N2CCC(N(C)C)CC2)n2c3c(cccc13)-c1c(C3CCCCC3)c3ccc(C(=O)O)cc3n1CCC2` [Compound 324], 6 nM corresponded to half-maximal inhibition (IC50).

`CCN(C)Cc1c(C(=O)N2CCN(C(C)=O)CC2)n2c3c(cccc13)-c1c(C3CCCCC3)c3ccc(C(=O)O)cc3n1CCC2` [Compound 325] had an IC50 of 7 nM. The IC50 values of the last two compounds are within 1.5-fold of each other.

In the case of `CCN(C)Cc1c(C(=O)N2CC[C@@H](NC(C)=O)C2)n2c3c(cccc13)-c1c(C3CCCCC3)c3ccc(C(=O)O)cc3n1CCC2` [Compound 326], the IC50 came out at 6 nM.

As to `NC1CCN2CCn3c(c(C4CCCCC4)c4ccc(C(=O)O)cc43)-c3ccc(F)c1c32` (stereo not drawn) [Compound 448], the half-inhibitory concentration (IC50) was 5.05 nM.

Turning to `CC1(C)C(=O)N2CCn3c(c(C4CCCCC4)c4ccc(C(=O)O)cc43)-c3cccc(c32)[C@@H]1N` [Compound 496, (4S)-4-amino-15-cyclohexyl-5,5-dimethyl-6-oxo-5,6,8,9-tetrahydro-4H-indolo[1′,2′:4,5][1,4]diazepino[6,7,1-ij]quinoline-12-carboxylic Acid], half-maximal inhibition (IC50) required 200 nM. Compared with the last compound, the IC50 is about 40-fold higher.

For `CC1(C)CN2CCn3c(c(C4CCCCC4)c4ccc(C(=O)O)cc43)-c3cccc(c32)[C@@H]1N` [Compound 497, (4R)-4-amino-15-cyclohexyl-5,5-dimethyl-5,6,8,9-tetrahydro-4H-indolo[1′,2′:4,5][1,4]diazepino[6,7,1-ij]quinoline-12-carboxylic Acid], it took 23 nM to reach half-maximal inhibition (IC50).

On to `CC1(C)C(=O)N2CCn3c(c(C4CCCCC4)c4ccc(C(=O)O)cc43)-c3cccc(c32)[C@H]1N` [Compound 498], for which the IC50 stood at 20 nM.

The compound `CC1(C)CN2CCn3c(c(C4CCCCC4)c4ccc(C(=O)O)cc43)-c3cccc(c32)[C@H]1N` [Compound 499] came in with an IC50 of 4 nM.
